{
  "source": "patent US20160374975A1",
  "about": "“COMPOSITION FOR TREATMENT OF NAFLD” (Pronova BioPharma Norge AS, priority 2015, published 2016)",
  "key": {"[1]": {"tested_on": "male C57BL6/J mice", "details": "PCB 153 exposure in high-fat-fed mice; not seen with HFD alone or PCB 153 alone; cited from earlier work"}, "[2]": {"tested_on": "mice", "details": "HFD+PCB 153 treated mice compared with HFD treatment alone; cited from earlier work"}, "[3]": {"tested_on": "HepG2 cells", "assay": "Intracellular lipid accumulation in steatic HepG2 cells (in vitro model of NAFLD), oil red O staining, OD 490 nm", "assay_type": "cell-based, human", "details": "steatic HepG2 cells treated with EPA/DHA, PCB 153 final concentration 50 μM, 24 hours at 37° C., versus DMSO alone", "description": "Palmitic (C16:0) and oleic (C18:1) acids are the most abundant fatty acids in liver triglycerides in both normal subjects and patients with NAFLD. The human hepatocyte-derived cell line HepG2 cells were seeded in a 96 well plate at a density of 5000 cells/well on Day 1. […] Intracellular accumulation of lipids was detected and quantified by oil red O staining using spectrophotometry at wavelength 490 nm. Oil red O color intracellular lipids droplets after cell fixation with paraformaldehyde. Absence of cell death was confirmed using a colometric lactate dehydrogenase (LDH) assay. Lactate dehydrogenase (LDH) is a cytosolic enzyme present in many different types of cells. When the plasma membrane is damaged, LDH is released into cell culture media. The released LDH was quantified by a coupled enzymatic reaction using a LDH cytotoxicity kit, and following the procedure according to the manufacture's instruction.\nTo assess the effect of n-3 PUFA on experimental NAFLD, the HepG2cells were treated with EPA and DHA at a concentration of 100 μM (1:1), or with fatty acids-free bovine serum albumin (BSA), as a control, together with 1 mM Oleic/Palmitic acid for 24 hours. […] Intracellular accumulation of lipids was detected and quantified by oil red O staining using spectrophotometry at wavelength 490 nm. […]"}},
  "data": [
    {"molecule": "Clc1cc(Cl)c(-c2cc(Cl)c(Cl)cc2Cl)cc1Cl", "note": "[PCB 153, polychlorinated biphenyl 153]", "values": [
      {"measurement": "Visceral adiposity, hepatic steatosis, and plasma adipokines", "setting": "[1]", "value": "increased"},
      {"measurement": "Reduction of hepatic glutathione", "setting": "[2]", "value": 6, "unit": "fold"},
      {"measurement": "Effect on the benefit of n-3 PUFA (EPA/DHA) on development of steatosis (intracellular lipids, oil red O)", "setting": "[3]", "value": "diminish the beneficial effect"}
    ]}
  ]
}
